Like-named read-outs stand apart in the source and are kept apart here.
Tests used:
Test in all cases: Test A pre/postemergence
Type in all cases: in vivo
[1] = system: barnyardgrass (Echinochloa crus-galli); settings: for pest or weed control at 125 g/ha / pest or weed control at 500 g/ha: Echinochloa crus-galli, 240 h, read-out: Plant response rating, Barnyardgrass
In short: (§1)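 Visual injury scores on a 0–100 scale, 100 being complete control, were assigned roughly ten days after treatment by comparison with untreated greenhouse controls. Test chemicals, formulated with surfactant in non-phytotoxic solvent, were sprayed onto soil preemergence and onto 1–2-leaf plants 2–10 cm tall postemergence.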

[2] = system: crabgrass (Digitaria sanguinalis); settings: for pest or weed control at 125 g/ha / pest or weed control at 500 g/ha: Digitaria sanguinalis, 240 h, read-out: Plant response rating, Crabgrass
In short: as §1

[3] = system: giant foxtail (Setaria faberi); settings: for pest or weed control at 125 g/ha / pest or weed control at 500 g/ha: Setaria faberi, 240 h, read-out: Plant response rating, Foxtail, Giant
In short: as §1

[4] = system: morningglory (Ipomoea spp.); settings: for pest or weed control at 125 g/ha / pest or weed control at 500 g/ha: Ipomoea, 240 h, read-out: Plant response rating, Morningglory
In short: as §1

[5] = system: redroot pigweed (Amaranthus retroflexus); settings: for pest or weed control at 125 g/ha / pest or weed control at 500 g/ha: Amaranthus retroflexus, 240 h, read-out: Plant response rating, Pigweed
In short: as §1

[6] = system: velvetleaf (Abutilon theophrasti); settings: for pest or weed control at 125 g/ha / pest or weed control at 500 g/ha: Abutilon theophrasti, 240 h, read-out: Plant response rating, Velvetleaf
In short: as §1

[7] = post-emergence, Postemergence, 125 g ai/ha, 0 to 100 scale (0 no effect, 100 complete control)
[8] = post-emergence, Postemergence, 500 g ai/ha, 0 to 100 scale (0 no effect, 100 complete control)
[9] = pre-emergence, Preemergence, 125 g ai/ha, 0 to 100 scale where 0 is no effect and 100 is complete control, approximately ten days
[10] = pre-emergence, Preemergence, 500 g ai/ha, 0 to 100 scale where 0 is no effect and 100 is complete control, approximately ten days
[11] = Postemergence, 125 g ai/ha, 0 to 100 scale (0 no effect, 100 complete control)
[12] = Postemergence, 500 g ai/ha, 0 to 100 scale (0 no effect, 100 complete control)
[13] = Preemergence, 125 g ai/ha, 0 to 100 scale where 0 is no effect and 100 is complete control, approximately ten days
[14] = Preemergence, 500 g ai/ha, 0 to 100 scale where 0 is no effect and 100 is complete control, approximately ten days

CCOC(=O)c1nc(-c2ccc3ccccc3c2)nc(N)c1Cl [Compound 127]
10%: pest or weed control at 500 g/ha [5, 8]
80%: pest or weed control at 500 g/ha [6, 8]
0%: pest or weed control at 125 g/ha [1, 7] | pest or weed control at 500 g/ha [1, 8] | pest or weed control at 125 g/ha [1, 9] | pest or weed control at 500 g/ha [1, 10] | pest or weed control at 125 g/ha [2, 7] | pest or weed control at 500 g/ha [2, 8] | pest or weed control at 125 g/ha [2, 9] | pest or weed control at 500 g/ha [2, 10] | pest or weed control at 125 g/ha [3, 7] | pest or weed control at 500 g/ha [3, 8] | pest or weed control at 125 g/ha [3, 9] | pest or weed control at 500 g/ha [3, 10] | pest or weed control at 125 g/ha [4, 7] | pest or weed control at 500 g/ha [4, 8] | pest or weed control at 125 g/ha [4, 9] | pest or weed control at 500 g/ha [4, 10] | pest or weed control at 125 g/ha [5, 7] | pest or weed control at 125 g/ha [5, 9] | pest or weed control at 500 g/ha [5, 10] | pest or weed control at 125 g/ha [6, 9] | pest or weed control at 500 g/ha [6, 10]
60%: pest or weed control at 125 g/ha [6, 7]

NC(=O)c1nc(-c2ccc(Br)cc2)nc(N)c1Br [Compound 130]
30: Plant response rating, Velvetleaf [6, 12]
0: Plant response rating, Barnyardgrass [1, 11] | Plant response rating, Barnyardgrass [1, 12] | Plant response rating, Barnyardgrass [1, 13] | Plant response rating, Barnyardgrass [1, 14] | Plant response rating, Crabgrass [2, 11] | Plant response rating, Crabgrass [2, 12] | Plant response rating, Crabgrass [2, 13] | Plant response rating, Crabgrass [2, 14] | Plant response rating, Foxtail, Giant [3, 11] | Plant response rating, Foxtail, Giant [3, 12] | Plant response rating, Foxtail, Giant [3, 13] | Plant response rating, Foxtail, Giant [3, 14] | Plant response rating, Morningglory [4, 11] | Plant response rating, Morningglory [4, 12] | Plant response rating, Morningglory [4, 13] | Plant response rating, Morningglory [4, 14] | Plant response rating, Pigweed [5, 11] | Plant response rating, Pigweed [5, 13] | Plant response rating, Pigweed [5, 14] | Plant response rating, Velvetleaf [6, 11] | Plant response rating, Velvetleaf [6, 13] | Plant response rating, Velvetleaf [6, 14]
15: Plant response rating, Pigweed [5, 12]

CS(=O)(=O)NC(=O)c1nc(-c2ccc(Cl)cc2)nc(N)c1Cl [Compound 131]
50: Plant response rating, Pigweed [5, 11]
30: Plant response rating, Crabgrass [2, 12] | Plant response rating, Foxtail, Giant [3, 12]
70: Plant response rating, Pigweed [5, 12]
10: Plant response rating, Barnyardgrass [1, 11] | Plant response rating, Crabgrass [2, 11]
15: Plant response rating, Foxtail, Giant [3, 11]
20: Plant response rating, Barnyardgrass [1, 12] | Plant response rating, Morningglory [4, 12]
35: Plant response rating, Velvetleaf [6, 11]
60: Plant response rating, Velvetleaf [6, 12]
0: Plant response rating, Barnyardgrass [1, 13] | Plant response rating, Barnyardgrass [1, 14] | Plant response rating, Crabgrass [2, 13] | Plant response rating, Crabgrass [2, 14] | Plant response rating, Foxtail, Giant [3, 13] | Plant response rating, Foxtail, Giant [3, 14] | Plant response rating, Morningglory [4, 11] | Plant response rating, Morningglory [4, 13] | Plant response rating, Morningglory [4, 14] | Plant response rating, Pigweed [5, 13] | Plant response rating, Pigweed [5, 14] | Plant response rating, Velvetleaf [6, 13] | Plant response rating, Velvetleaf [6, 14]

CS(=O)(=O)NC(=O)c1nc(C2CC2)nc(N)c1Cl [Compound 132]
0: Plant response rating, Barnyardgrass [1, 11] | Plant response rating, Barnyardgrass [1, 13] | Plant response rating, Barnyardgrass [1, 14] | Plant response rating, Crabgrass [2, 13] | Plant response rating, Crabgrass [2, 14] | Plant response rating, Foxtail, Giant [3, 11] | Plant response rating, Foxtail, Giant [3, 13] | Plant response rating, Foxtail, Giant [3, 14] | Plant response rating, Morningglory [4, 13] | Plant response rating, Morningglory [4, 14] | Plant response rating, Velvetleaf [6, 13]
45: Plant response rating, Morningglory [4, 11]
5: Plant response rating, Crabgrass [2, 11] | Plant response rating, Foxtail, Giant [3, 12] | Plant response rating, Velvetleaf [6, 14]
10: Plant response rating, Barnyardgrass [1, 12] | Plant response rating, Crabgrass [2, 12]
65: Plant response rating, Pigweed [5, 12] | Plant response rating, Pigweed [5, 14]
15: Plant response rating, Pigweed [5, 13]
60: Plant response rating, Velvetleaf [6, 12]
50: Plant response rating, Morningglory [4, 12] | Plant response rating, Pigweed [5, 11] | Plant response rating, Velvetleaf [6, 11]

COC(OC)c1nc(-c2ccc(I)cc2)nc(N)c1Cl [Compound 134]
15: Plant response rating, Pigweed [5, 11]
50: Plant response rating, Velvetleaf [6, 11]
0: Plant response rating, Barnyardgrass [1, 11] | Plant response rating, Barnyardgrass [1, 12] | Plant response rating, Barnyardgrass [1, 13] | Plant response rating, Barnyardgrass [1, 14] | Plant response rating, Crabgrass [2, 11] | Plant response rating, Crabgrass [2, 12] | Plant response rating, Crabgrass [2, 13] | Plant response rating, Crabgrass [2, 14] | Plant response rating, Foxtail, Giant [3, 11] | Plant response rating, Foxtail, Giant [3, 12] | Plant response rating, Foxtail, Giant [3, 13] | Plant response rating, Foxtail, Giant [3, 14] | Plant response rating, Morningglory [4, 11] | Plant response rating, Morningglory [4, 12] | Plant response rating, Morningglory [4, 13] | Plant response rating, Morningglory [4, 14] | Plant response rating, Pigweed [5, 13] | Plant response rating, Pigweed [5, 14] | Plant response rating, Velvetleaf [6, 13] | Plant response rating, Velvetleaf [6, 14]
30: Plant response rating, Pigweed [5, 12]
55: Plant response rating, Velvetleaf [6, 12]

CCOC(=O)c1nc(-c2ccc(Cl)cc2)nc(N)c1I [Compound 137]
30: Plant response rating, Morningglory [4, 12]
5: Plant response rating, Morningglory [4, 11]
60: Plant response rating, Velvetleaf [6, 12]
0: Plant response rating, Barnyardgrass [1, 11] | Plant response rating, Barnyardgrass [1, 12] | Plant response rating, Barnyardgrass [1, 13] | Plant response rating, Barnyardgrass [1, 14] | Plant response rating, Crabgrass [2, 11] | Plant response rating, Crabgrass [2, 12] | Plant response rating, Crabgrass [2, 13] | Plant response rating, Crabgrass [2, 14] | Plant response rating, Foxtail, Giant [3, 11] | Plant response rating, Foxtail, Giant [3, 12] | Plant response rating, Foxtail, Giant [3, 13] | Plant response rating, Foxtail, Giant [3, 14] | Plant response rating, Morningglory [4, 13] | Plant response rating, Morningglory [4, 14] | Plant response rating, Pigweed [5, 13] | Plant response rating, Pigweed [5, 14] | Plant response rating, Velvetleaf [6, 13] | Plant response rating, Velvetleaf [6, 14]
25: Plant response rating, Pigweed [5, 11]
45: Plant response rating, Pigweed [5, 12] | Plant response rating, Velvetleaf [6, 11]
